Values joined by “and” are separate entries in the source; they are usually repeats but may differ in a detail not shown here. Equal entries are not always repeated.
Tests used:
[1] = system: sea lice; test: KCl bath treatment of sea-lice-infected Atlantic salmon: sea lice detachment; type: in vivo
Method: (§1) A 0.48% (4.8 g/L-4.8 ppt) pharmaceutical grade KCl compound was tested on 30 Atlantic salmon that were infected with sea lice. The fish and the compound were added to a tank filled with seawater. After 30 minutes 15 fish were removed and placed in a recovery bath of seawater, and at 60 minutes the remaining 15 fish were removed.
(§2) A 0.43% % (4.3 g/L-4.3 ppt) agricultural grade KCl compound was tested on Atlantic salmon that were infected with sea lice. After 10 minutes the fish began showing agitation that increased until the 30 minute mark. Fish began losing equilibrium and began to roll over and stop respiring by 20 minutes.
(§3) A water holding tank was filled with fresh well water at 10° C.+−2° C. A 0.5% % (5.0 g/L-5.0 ppt) agricultural grade KCl solution was added to the water. A number of farm-raised Atlantic salmon that were infected with sea lice were added to the tank.
(§4) A water holding tank was filled with fresh well water at 10° C.+−2° C. A 0.2% % (2.0 g/L-2.0 ppt) agricultural grade KCl solution was added to the water. A number of farm-raised Atlantic salmon that were infected with sea lice were added to the tank.

[2] = system: Atlantic salmon; test: KCl bath treatment of Atlantic salmon: adverse effects on the fish; type: in vivo
Method: as §1, §2, §3, §4

[3] = system: sea lice; test: Pilot laboratory trial: KCl pre-treatment plus mechanical devices for removal of sea lice from Atlantic salmon; type: in vivo
Method: A pilot laboratory trial was run using various forms of mechanical devices for removal of sea lice from Atlantic salmon (ATS). The effectiveness of the mechanical devices at removing/detaching lice was measured with and without KCl pretreatment, and the results compared.
The experiment consisted of testing 3 mechanical devices on lice infested Atlantic salmon (ATS) in seawater and then on lice infested Atlantic salmon that had been pre-treated in seawater with KCL at 4 part per thousand (PPT) or 2 PPT for 5 or 15 minutes. The mechanical treatment referred to as Treatment A in Table 1 was a water spray apparatus including multiple jets in a roughly circular arrangement, and treatments B and C in Table 1 were alternative mechanical treatments. Each treatment group was run separately with two fish were staggered by 15 minutes to facilitate counting lice, except for Treatment C as both fish were placed together. The treatment groups were as follows: • 1) Treatment A with seawater (2 fish) • 2) Treatment A with sea water plus KCL 4 PPT, 15 minutes (2 fish) • 3) Treatment B with seawater (2 fish) • 4) Treatment B with sea water plus KCL 4 PPT, 15 minutes (2 fish) • 5) Treatment A with seawater plus 2PPT, 15 minutes (1 fish) • 6) Treatment A with sea water plus KCL 4 PPT, 5 minutes (1 fish) • 7) Treatment C with seawater (2 fish) • 8) Treatment C sea water plus KCL 2 PPT (2 fish)
Each treatment group was performed essentially as follows:
Pre-Treatment before Treatment A, B, or C • 1) Take 1 fish and transfer it to Tank 1 (70 liter tank); • 2) Take 1 fish and transfer it to Tank 2, staggered (70 liter tank); • 3) Both tanks will be filled with seawater for Round 1 of a treatment group and seawater and KC1 4PPT X for Round 2 for a treatment; • 4) Fish swim around freely in treatment Tank 1 for 30 minutes; • 5) Fish swim around freely in treatment Tank 2 for 30 minutes;
Evaluation of Pretreatment: • 1) Remove Fish from Tank 1; • 2) Place 1 Fish in Sedation Tank; • 3) Count detached lice in Tank 1; • 4) Remove 1 Fish from Sedation Tank; • 5) Count numbers of Lice on each fish (making sure to differentiate between the two tanks); • 6) Repeat for staggered Tank 2.
Perform Mechanical Treatment: • 1) Pass fish through mechanical treatments (A, B or C) • 2) Count lice on fish

[4] = previously known pesticide treatment; cited from earlier work
[5] = Example 1: 0.48% (4.8 ppt) pharmaceutical grade KCl, seawater tank, 30 and 60 minutes
[6] = Example 3: 0.5% (5.0 ppt) agricultural grade KCl, fresh well water at 10° C.
[7] = Mechanical Treatment A, KCl 2 PPT in seawater, treatment time 15 min
[8] = Mechanical Treatment A, KCl 4 PPT in seawater, treatment time 5 min
[9] = Mechanical Treatment A, KCl 4 PPT in seawater, treatment time 15 min
[10] = Mechanical Treatment B, KCl 4 PPT in seawater, treatment time 15 min

[Cl-].[K+] [KCl, potassium chloride]
sea lice detachment [1, 5]: noticeable sea lice detachment | sea lice detachment ([1]; Example 2: 0.43% (4.3 ppt) agricultural grade KCl, by agitation and thrashing of the dying fish): detached more lice | sea lice removal [1, 6]: marked sea lice removal | sea lice detachment ([1]; Example 4: 0.2% (2.0 ppt) agricultural grade KCl, fresh well water at 10° C., after 30 minutes): marked sea lice detachment | effectiveness on sea lice in freshwater compared with seawater ([1]; freshwater vs seawater): more effective | adverse effects on the salmon [2, 5]: no noticeable adverse effects | time by which fish began losing equilibrium, rolled over and stopped respiring ([2]; Example 2: 0.43% (4.3 ppt) agricultural grade KCl): ≤ 20 min | time after which fish began showing agitation ([2]; Example 2: 0.43% (4.3 ppt) agricultural grade KCl, agitation increased until the 30 minute mark): 10 min | time within which fish showed extreme agitation, began to lose equilibrium and respiration stopped [2, 6]: ≤ 10 min | agitation or adverse effect on the fish ([2]; Example 4: 0.2% (2.0 ppt) agricultural grade KCl, fresh well water at 10° C., after 60 minutes): no agitation or adverse effect | effect of KCl on effectiveness of mechanical treatments A and B at removing/detaching lice ([3]; KCl pretreatment in seawater before mechanical treatment): increases the effectiveness | # removed - mechanical + KCl [3, 7]: 90 | # removed - mechanical treatment only [3, 7]: 39 | % removed - mechanical + KCl [3, 7]: 78.3% | % removed - mechanical treatment only [3, 7]: 60.9% | Sealice counts: Detached in pre-treatment tank [3, 7]: 51 | Sealice counts: On fish - finish [3, 7]: 25 | Sealice counts: On fish - start of mechanical treatment [3, 7]: 64 | # removed - mechanical + KCl [3, 8]: 117 | # removed - mechanical treatment only [3, 8]: 65 | % removed - mechanical + KCl [3, 8]: 80.7% | % removed - mechanical treatment only [3, 8]: 69.9% | Sealice counts: Detached in pre-treatment tank [3, 8]: 52 | Sealice counts: On fish - finish [3, 8]: 28 | Sealice counts: On fish - start of mechanical treatment [3, 8]: 93 | # removed - mechanical + KCl [3, 9]: 99 and 115 | # removed - mechanical treatment only [3, 9]: 19 and 16 | % removed - mechanical + KCl [3, 9]: 91.7% and 99.1% | % removed - mechanical treatment only [3, 9]: 67.9% and 94.1% | Sealice counts: Detached in pre-treatment tank [3, 9]: 80 and 99 | Sealice counts: On fish - start of mechanical treatment [3, 9]: 28 and 17 | # removed - mechanical + KCl [3, 10]: 88 and 85 | # removed - mechanical treatment only [3, 10]: 9 and 11 | % removed - mechanical + KCl [3, 10]: 91.7% and 93.4% | % removed - mechanical treatment only [3, 10]: 52.9% and 64.7% | Sealice counts: Detached in pre-treatment tank [3, 10]: 79 and 74 | Sealice counts: On fish - finish [3, 10]: 8 and 6 | Sealice counts: On fish - start of mechanical treatment [3, 10]: 17 | Sealice counts: On fish - finish ([3]; Mechanical Treatment C, KCl 2 PPT in seawater, treatment time 5 min, lice not counted prior to treatment): 35 and 31 | removing/detaching lice by KCl pretreatment on its own ([3]; pretreatment at 4ppt and 2ppt in seawater): effective in removing/detaching lice on its own | effectiveness of KCl at 4ppt compared with 2ppt ([3]; seawater pretreatment): more effective | effectiveness of KCl at 4ppt for 15 minutes compared with 5 minutes ([3]; seawater pretreatment, 4ppt): more effective

emamectin benzoate
time the pesticide can remain in the fish [4]: more than two months
